Measured values published in US8658685B2, “Methods for treatment of kallikrein-related disorders” (Activesite Pharmaceuticals, Inc., priority 2008, dated 2014).

How the values were obtained:
Factor XIIa = biological target: T1, Factor XIIa (Homo sapiens, UniProt P00748); test: Inhibitor profile of ASP-440: Factor XIIa; assay type: biochemical
T1 sequence (P00748 373-615 limits assumed): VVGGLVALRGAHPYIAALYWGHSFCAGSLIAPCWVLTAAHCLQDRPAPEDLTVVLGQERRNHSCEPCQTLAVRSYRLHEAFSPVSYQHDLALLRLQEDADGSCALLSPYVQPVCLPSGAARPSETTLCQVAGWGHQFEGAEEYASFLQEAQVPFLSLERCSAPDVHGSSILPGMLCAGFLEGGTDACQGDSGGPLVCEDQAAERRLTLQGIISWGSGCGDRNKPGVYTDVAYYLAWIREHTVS

[1] = biological target: Tissue Factor-Factor VIIa (Homo sapiens, UniProt P08709); test: Inhibitor profile of ASP-440: Tissue Factor-Factor VIIa; assay type: biochemical
Factor Xa = Factor Xa (Homo sapiens, UniProt P00742); test: Inhibitor profile of ASP-440: Factor Xa; assay type: biochemical
[2] = tested on: diabetes-induced retinal vascular permeability; test: Diabetes-induced retinal vascular permeability in rats; assay type: in vivo, rat; settings: STZ-induced diabetes, 28 days; subcutaneous osmotic pump; Evan's blue dye method
Plasmin = Plasmin (Homo sapiens, UniProt P00747); test: Inhibitor profile of ASP-440: Plasmin; assay type: biochemical
[3] = biological target: purified human plasma kallikrein (PK) (Homo sapiens, UniProt P03952); test: Inhibitor profile of ASP-440: plasma kallikrein; assay type: biochemical
[4] = biological target: T2, endogenous PK in rat plasma (Rattus norvegicus, UniProt P14272); test: Inhibition of endogenous PK in rat plasma; assay type: biochemical; settings: read-out: Kiapp
T2 construct: from tissue; host or cells: rat plasma

[5] = tested on: plasma kallikrein-induced hematoma; test: Hematoma after intracerebral injection of purified activated plasma kallikrein in diabetic rats; assay type: in vivo, rat; settings: 2 hrs following plasma kallikrein injection, 24 hrs pretreatment via subcutaneous osmotic pump
Text: The increased response of diabetic rats to the model of intracerebral hemorrhage described above could be due to factors within the blood or due to an increased response in the neurovascular tissue. To evaluate the latter, we performed intracerebral injections of purified activated plasma kallikrein in rats with 1 mo of STZ-induced diabetes or age-matched non-diabetic controls. The contralateral hemisphere was subjected to an equivalent injection with saline vehicle. […]

[6] = tested on: AngII-induced retinal vascular permeability; test: AngII-induced retinal vascular permeability in rats; assay type: in vivo, rat; settings: AngII and ASP-440 via 2 Alzet pumps for 7 days; Evan's blue dye method
Description: Rats were implanted with a single subcutaneous osmotic pump containing Ang II or two pumps containing AngII and ASP-465, as indicated. RVP was measured using vitreous fluorophotometry after 3 days.
RVP was measured using Evan's blue dye method after 7 days.
We examined the effect of the kallikrein inhibitor ASP-465 on RVP induced by angiotensin II (AngII).

Thrombin = Thrombin (Homo sapiens, UniProt P00734); test: Inhibitor profile of ASP-440: Thrombin; assay type: biochemical
[7] = tested on: ischemia-induced cerebral vascular permeability and infarct; test: Middle cerebral artery occlusion (MCAO) in rats with 4 weeks of STZ-induced diabetes; assay type: in vivo, rat; settings: vs diabetic rats receiving vehicle
Description: Rats were implanted with a single subcutaneous osmotic pump containing ASP-440, as indicated. Cerebral vascular permeability was measured using Evan's blue dye method 2 hours after occlusion.
Infarct area was measured using Triphenyltetrazolium chloride stain after 24 hours of permanent occlusion.
The effect of diabetes on cerebral vascular permeability induced by ischemia was examined in rats subjected to middle cerebral artery occlusion (MCAO). […] Cerebral vascular permeability following MCAO was increased in the diabetic rats compared with nondiabetic rats (FIG. 14). […] MCAO-induced infarct area is increased in rats with 4 weeks of diabetes compare with nondiabetic rats (FIG. 15).

Factor XIa = Factor XIa (Homo sapiens, UniProt P03951); test: Inhibitor profile of ASP-440: Factor XIa; assay type: biochemical
[8] = tested on: intrinsic coagulation pathway; test: Plasma coagulation time, activation with Actin FS reagent; assay type: biochemical; settings: at 10 μM; plasma activated with Actin FS reagent
[9] = tested on: recombinant tissue factor; test: Plasma coagulation time, activation with Innovin reagent; assay type: biochemical; settings: plasma activated by Innovin reagent; concentrations up to 30 μM
blood-induced hematoma = test: Hematoma after intracerebral infusion of autologous blood in diabetic rats; assay type: in vivo, Sprague-Dawley rats; settings: systemic treatment, 48 h after intracerebral infusion of autologous blood
Description: We have compared the response to intracerebral infusion of blood in Sprague-Dawley rats with 1 mo of STZ-induced diabetes with age matched non-diabetic control rats. Fifty μL of autologous whole blood was collected from the tail vein and immediately infused 1 mm anterior, 4 mm lateral and 6 mm in depth to the bregma using a 30 gauge needle at 20 μL per minute. The infusion needle was removed 10 min after injection and the burr hole was sealed with bone wax. Forty-eight hours after intracerebral injection, the animals were perfused with saline and surface hematoma area was examined by measurement of hematoma area relative to total hemisphere area.

[10] = biological target: T3, endogenous PK in human plasma (Homo sapiens, UniProt P03952); test: Inhibition of endogenous PK in human plasma; assay type: biochemical; settings: read-out: Kiapp
T3 construct: from tissue; host or cells: human plasma

[11] = biological target: Porcine Pancreatic Kallikrein (Sus scrofa, UniProt P00752); test: Inhibitor profile of ASP-440: Porcine Pancreatic Kallikrein; assay type: biochemical
Factor IXa = Factor IXa (Homo sapiens, UniProt P00740); test: Inhibitor profile of ASP-440: Factor IXa; assay type: biochemical
astrocytes [12] = test: Plasma kallikrein binding to astrocytes; assay type: cell-based
Text: (§1) We have also studied the effects of plasma kallikrein pathway activation on astrocytes. […] Exposure of astrocytes to plasma kallikrein potently stimulated ERK phosphorylation, and this action of kallikrein on astrocytes is not affected by B2-R antagonism (Hoe140). The effect of kallikrein on astrocytes was blocked by leupeptin, a protease inhibitor and C1-INH (data not shown). […] This is in contrast to the bradykinin effect, which is rapid and transient (data not shown). Plasma kallikrein's effect on ERK phosphorylation in astrocytes is dose dependent, reaching a maximal effect at 100 nM kallikrein (data not shown). […] In addition, plasma kallikrein binding to astrocytes was blocked by AS-440 (FIG. 9B) and C1-INH (data not shown).

astrocytes [13] = test: Plasma kallikrein-induced ERK phosphorylation in astrocytes; assay type: cell-based; settings: astrocytes exposed to plasma kallikrein
Text: as §1

Sequence of Factor Xa (P00742 235-488 limits assumed): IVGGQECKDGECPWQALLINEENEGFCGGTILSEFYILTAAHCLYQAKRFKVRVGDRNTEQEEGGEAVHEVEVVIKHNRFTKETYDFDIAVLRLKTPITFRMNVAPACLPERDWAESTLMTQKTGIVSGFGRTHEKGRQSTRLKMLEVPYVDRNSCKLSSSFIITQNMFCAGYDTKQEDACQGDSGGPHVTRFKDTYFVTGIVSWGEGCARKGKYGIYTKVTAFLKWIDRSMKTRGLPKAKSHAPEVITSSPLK
Sequence of Factor Xa (P00742 41-179 partner limits assumed): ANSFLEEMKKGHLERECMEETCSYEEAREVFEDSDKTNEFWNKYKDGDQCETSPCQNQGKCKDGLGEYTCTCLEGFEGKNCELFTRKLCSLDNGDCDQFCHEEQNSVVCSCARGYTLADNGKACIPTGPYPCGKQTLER
Sequence of Factor XIa (P03951 388-625 limits assumed): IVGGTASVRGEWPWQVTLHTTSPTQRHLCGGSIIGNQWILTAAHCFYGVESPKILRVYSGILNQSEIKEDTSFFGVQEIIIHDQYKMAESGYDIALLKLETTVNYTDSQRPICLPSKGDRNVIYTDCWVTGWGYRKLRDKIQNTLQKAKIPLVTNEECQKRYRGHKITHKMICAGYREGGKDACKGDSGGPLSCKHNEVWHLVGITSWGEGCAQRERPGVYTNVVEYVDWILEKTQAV
Sequence of Factor XIa (P03951 19-387 partner limits assumed): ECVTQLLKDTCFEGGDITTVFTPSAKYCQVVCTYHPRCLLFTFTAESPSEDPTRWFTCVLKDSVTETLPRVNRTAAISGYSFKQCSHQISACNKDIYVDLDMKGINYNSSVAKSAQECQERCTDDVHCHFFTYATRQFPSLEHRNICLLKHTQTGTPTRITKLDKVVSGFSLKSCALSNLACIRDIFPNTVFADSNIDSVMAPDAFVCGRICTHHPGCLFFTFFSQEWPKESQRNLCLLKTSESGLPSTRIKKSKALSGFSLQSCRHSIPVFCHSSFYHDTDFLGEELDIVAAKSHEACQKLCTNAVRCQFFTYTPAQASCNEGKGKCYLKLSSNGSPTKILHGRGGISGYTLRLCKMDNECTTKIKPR
Sequence of Factor IXa (P00740 227-461 limits assumed): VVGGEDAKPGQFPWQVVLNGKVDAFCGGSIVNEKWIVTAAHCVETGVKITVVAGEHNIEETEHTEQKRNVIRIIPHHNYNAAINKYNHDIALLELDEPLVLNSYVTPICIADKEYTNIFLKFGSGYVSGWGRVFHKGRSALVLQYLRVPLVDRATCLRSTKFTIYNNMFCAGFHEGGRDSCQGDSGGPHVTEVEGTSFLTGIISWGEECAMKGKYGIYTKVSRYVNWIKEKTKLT
Sequence of Factor IXa (P00740 47-191 partner limits assumed): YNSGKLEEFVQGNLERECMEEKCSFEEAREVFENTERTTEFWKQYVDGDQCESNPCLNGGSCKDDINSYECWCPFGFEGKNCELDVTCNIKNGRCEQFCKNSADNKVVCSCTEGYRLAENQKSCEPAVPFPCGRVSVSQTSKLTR
Sequence of Porcine Pancreatic Kallikrein (P00752 8-246): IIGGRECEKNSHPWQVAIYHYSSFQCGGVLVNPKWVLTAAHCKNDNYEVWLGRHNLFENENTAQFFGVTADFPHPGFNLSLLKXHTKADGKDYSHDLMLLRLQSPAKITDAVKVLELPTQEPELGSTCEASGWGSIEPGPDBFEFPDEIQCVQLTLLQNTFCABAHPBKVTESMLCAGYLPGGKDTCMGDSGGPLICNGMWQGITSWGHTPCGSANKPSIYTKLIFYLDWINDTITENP
Sequence of Tissue Factor-Factor VIIa (P08709 213-466 limits assumed): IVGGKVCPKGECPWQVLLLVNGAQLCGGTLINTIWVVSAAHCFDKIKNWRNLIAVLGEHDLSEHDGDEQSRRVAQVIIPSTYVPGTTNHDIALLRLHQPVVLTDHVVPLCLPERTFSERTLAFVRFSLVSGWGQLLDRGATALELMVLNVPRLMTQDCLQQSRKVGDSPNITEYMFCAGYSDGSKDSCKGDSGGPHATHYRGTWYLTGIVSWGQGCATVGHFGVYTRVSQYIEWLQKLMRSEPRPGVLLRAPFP
Sequence of Tissue Factor-Factor VIIa (P08709 61-212 partner limits assumed): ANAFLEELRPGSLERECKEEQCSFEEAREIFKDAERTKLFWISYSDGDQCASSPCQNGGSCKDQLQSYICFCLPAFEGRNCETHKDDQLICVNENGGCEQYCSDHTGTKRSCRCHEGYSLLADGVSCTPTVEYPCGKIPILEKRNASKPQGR
Sequence of Tissue Factor-Factor VIIa (P13726 33-295 partner): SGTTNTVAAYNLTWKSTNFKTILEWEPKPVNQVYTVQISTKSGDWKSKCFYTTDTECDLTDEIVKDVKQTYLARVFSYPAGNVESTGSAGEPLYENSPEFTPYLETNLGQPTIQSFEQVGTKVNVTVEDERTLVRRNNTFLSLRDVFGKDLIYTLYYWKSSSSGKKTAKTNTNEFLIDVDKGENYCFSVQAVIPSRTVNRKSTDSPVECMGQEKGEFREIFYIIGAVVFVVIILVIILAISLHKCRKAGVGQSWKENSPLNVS
Sequence of Plasmin (P00747 581-810 limits assumed, species assumed): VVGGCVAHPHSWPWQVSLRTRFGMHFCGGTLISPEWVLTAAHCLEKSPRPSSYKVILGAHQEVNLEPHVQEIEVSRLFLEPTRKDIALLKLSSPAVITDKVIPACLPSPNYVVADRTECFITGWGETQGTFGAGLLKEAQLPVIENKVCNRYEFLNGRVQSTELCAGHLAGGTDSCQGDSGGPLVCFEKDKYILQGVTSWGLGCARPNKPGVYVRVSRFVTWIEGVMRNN
Sequence of Plasmin (P00747 97-580 partner limits assumed, species assumed): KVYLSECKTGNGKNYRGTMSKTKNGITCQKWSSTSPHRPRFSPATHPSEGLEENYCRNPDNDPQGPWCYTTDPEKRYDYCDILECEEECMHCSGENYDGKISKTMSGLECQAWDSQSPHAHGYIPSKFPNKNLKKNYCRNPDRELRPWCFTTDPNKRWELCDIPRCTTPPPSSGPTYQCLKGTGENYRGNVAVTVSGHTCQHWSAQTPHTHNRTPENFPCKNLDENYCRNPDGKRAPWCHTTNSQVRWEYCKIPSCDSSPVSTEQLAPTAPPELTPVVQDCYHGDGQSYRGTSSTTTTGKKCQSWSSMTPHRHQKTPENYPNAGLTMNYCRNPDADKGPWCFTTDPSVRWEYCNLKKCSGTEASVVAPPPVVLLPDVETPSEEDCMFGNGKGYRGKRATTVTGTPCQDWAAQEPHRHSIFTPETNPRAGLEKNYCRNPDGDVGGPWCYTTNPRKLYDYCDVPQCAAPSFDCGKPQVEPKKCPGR
Sequence of purified human plasma kallikrein (PK) (P03952 20-638): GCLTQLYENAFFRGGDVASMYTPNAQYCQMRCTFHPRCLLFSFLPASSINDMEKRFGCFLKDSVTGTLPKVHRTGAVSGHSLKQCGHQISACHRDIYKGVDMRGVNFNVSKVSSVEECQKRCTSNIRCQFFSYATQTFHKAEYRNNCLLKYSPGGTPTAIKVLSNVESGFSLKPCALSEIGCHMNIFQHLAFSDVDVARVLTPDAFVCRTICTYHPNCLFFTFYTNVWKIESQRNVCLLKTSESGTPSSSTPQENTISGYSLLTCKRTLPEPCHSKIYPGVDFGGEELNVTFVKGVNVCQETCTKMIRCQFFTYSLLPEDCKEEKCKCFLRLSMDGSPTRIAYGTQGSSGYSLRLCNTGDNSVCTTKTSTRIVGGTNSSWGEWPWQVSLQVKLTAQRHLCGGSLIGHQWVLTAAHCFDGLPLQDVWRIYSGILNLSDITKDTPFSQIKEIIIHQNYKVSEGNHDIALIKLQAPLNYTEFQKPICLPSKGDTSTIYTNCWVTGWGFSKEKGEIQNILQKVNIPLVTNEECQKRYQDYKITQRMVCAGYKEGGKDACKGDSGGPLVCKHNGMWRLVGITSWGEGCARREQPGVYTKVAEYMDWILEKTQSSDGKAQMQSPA
T2 sequence (P14272 20-638): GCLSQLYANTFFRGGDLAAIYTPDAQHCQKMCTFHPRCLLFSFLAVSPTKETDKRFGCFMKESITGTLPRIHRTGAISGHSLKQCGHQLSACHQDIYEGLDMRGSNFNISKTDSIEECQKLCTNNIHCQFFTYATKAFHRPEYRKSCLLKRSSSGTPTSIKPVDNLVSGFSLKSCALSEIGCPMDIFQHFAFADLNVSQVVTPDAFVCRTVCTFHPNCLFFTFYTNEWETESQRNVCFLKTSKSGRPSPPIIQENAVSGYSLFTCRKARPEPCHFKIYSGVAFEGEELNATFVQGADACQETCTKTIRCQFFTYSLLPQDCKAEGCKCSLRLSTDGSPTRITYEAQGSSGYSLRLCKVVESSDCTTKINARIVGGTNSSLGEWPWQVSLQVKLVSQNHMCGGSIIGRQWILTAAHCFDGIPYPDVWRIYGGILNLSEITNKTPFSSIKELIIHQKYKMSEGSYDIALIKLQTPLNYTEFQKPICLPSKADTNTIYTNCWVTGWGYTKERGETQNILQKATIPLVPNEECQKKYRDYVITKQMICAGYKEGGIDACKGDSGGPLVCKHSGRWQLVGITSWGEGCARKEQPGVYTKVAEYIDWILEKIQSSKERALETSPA
T3 sequence (P03952 20-638): as the sequence (P03952 20-638) above

**Q.** `N=C(N)c1ccc(CNC(=O)c2cnn(Cc3ccccc3)c2)cc1` [ASP-440, 1-Benzyl-1H-pyrazole-4-carboxylic acid 4-carbamimidoyl-benzylamide] was tested. Which Ki (Factor XIIa; Factor XIIa) did it give?
**A.** > 100 µM

**Q.** What about the inhibition at 1 µM (Factor XIIa; predicted inhibition at 1 μM) of the same molecule?
**A.** 0%

**Q.** What about the inhibition at 10 µM (Factor XIIa; predicted inhibition at 10 μM) of the same molecule?
**A.** 1%

**Q.** What about the Ki ([1]; Tissue Factor-Factor VIIa) of the same molecule?
**A.** 160 µM

**Q.** What about the inhibition at 1 µM ([1]; predicted inhibition at 1 μM) of the same molecule?
**A.** 0%

**Q.** And the inhibition at 10 µM ([1]; predicted inhibition at 10 μM)?
**A.** 6%

**Q.** And the Ki (Factor Xa; Factor Xa)?
**A.** 85 µM

**Q.** And the inhibition at 1 µM (Factor Xa; predicted inhibition at 1 μM)?
**A.** 0%

**Q.** What about the inhibition at 10 µM (Factor Xa; predicted inhibition at 10 μM) of the same molecule?
**A.** 11%

**Q.** What about the RVP [2] of the same molecule?
**A.** normal levels of RVP

**Q.** And the Ki (Plasmin; Plasmin)?
**A.** 16 µM

**Q.** And the inhibition at 1 µM (Plasmin; predicted inhibition at 1 μM)?
**A.** 6%

**Q.** And the inhibition at 10 µM (Plasmin; predicted inhibition at 10 μM)?
**A.** 38%

**Q.** What about the Ki ([3]; PlasmaKallikrein) of the same molecule?
**A.** 100 nM

**Q.** And the inhibition at 1 µM ([3]; predicted inhibition at 1 μM)?
**A.** 91%

**Q.** What about the inhibition at 10 µM ([3]; predicted inhibition at 10 μM) of the same molecule?
**A.** 99%

**Q.** And the mode of inhibition ([3]; purified human plasma kallikrein)?
**A.** competitive and reversible

**Q.** And the Ki [4]?
**A.** 400 nM

**Q.** And the hematoma response [5]?
**A.** decreased

**Q.** And the RVP [6]?
**A.** normal levels of RVP

**Q.** And the Ki (Thrombin; Thrombin)?
**A.** 110 µM

**Q.** And the inhibition at 1 µM (Thrombin; predicted inhibition at 1 μM)?
**A.** 1%

**Q.** And the inhibition at 10 µM (Thrombin; predicted inhibition at 10 μM)?
**A.** 9%

**Q.** And the “reduction of cerebral vascular permeability” value ([7]; 3 days pretreatment via subcutaneous osmotic pump, MCAO for 2 hrs)?
**A.** about 50%

**Q.** What about the “decrease of infarct area” value ([7]; treatment 3 days prior to MCAO, 24 hours of permanent occlusion) of the same molecule?
**A.** about 40%

**Q.** What about the Ki (Factor XIa; Factor XIa) of the same molecule?
**A.** 120 µM

**Q.** What about the inhibition at 1 µM (Factor XIa; predicted inhibition at 1 μM) of the same molecule?
**A.** 0%

**Q.** And the inhibition at 10 µM (Factor XIa; predicted inhibition at 10 μM)?
**A.** 7%

**Q.** What about the “prolongation of coagulation time in plasma” value [8] of the same molecule?
**A.** ~50%

**Q.** What about the “effect on coagulation time” value [9] of the same molecule?
**A.** without measurable effect

**Q.** What about the hematoma area (blood-induced hematoma) of the same molecule?
**A.** reduced hematoma area in diabetic rats to a level comparable to that observed in non-diabetic controls

**Q.** What about the Ki [10] of the same molecule?
**A.** 200 nM

**Q.** What about the Ki ([11]; Porcine Pancreatic Kallikrein) of the same molecule?
**A.** > 100 µM

**Q.** What about the inhibition at 1 µM ([11]; predicted inhibition at 1 μM) of the same molecule?
**A.** 0%

**Q.** And the inhibition at 10 µM ([11]; predicted inhibition at 10 μM)?
**A.** 0%

**Q.** What about the Ki (Factor IXa; Factor IXa) of the same molecule?
**A.** > 100 µM

**Q.** What about the inhibition at 1 µM (Factor IXa; predicted inhibition at 1 μM) of the same molecule?
**A.** 0%

**Q.** And the inhibition at 10 µM (Factor IXa; predicted inhibition at 10 μM)?
**A.** 0%

**Q.** What about the “plasma kallikrein binding to astrocytes” value (astrocytes [12]) of the same molecule?
**A.** blocked

**Q.** What about the “effect of kallikrein on ERK phosphorylation” value (astrocytes [13]) of the same molecule?
**A.** blocked
